Biological target: T1, GCS (Canis lupus familiaris, UniProt A0A8I3MXG6)
T1 sequence (A0A8I3MXG6 1-394): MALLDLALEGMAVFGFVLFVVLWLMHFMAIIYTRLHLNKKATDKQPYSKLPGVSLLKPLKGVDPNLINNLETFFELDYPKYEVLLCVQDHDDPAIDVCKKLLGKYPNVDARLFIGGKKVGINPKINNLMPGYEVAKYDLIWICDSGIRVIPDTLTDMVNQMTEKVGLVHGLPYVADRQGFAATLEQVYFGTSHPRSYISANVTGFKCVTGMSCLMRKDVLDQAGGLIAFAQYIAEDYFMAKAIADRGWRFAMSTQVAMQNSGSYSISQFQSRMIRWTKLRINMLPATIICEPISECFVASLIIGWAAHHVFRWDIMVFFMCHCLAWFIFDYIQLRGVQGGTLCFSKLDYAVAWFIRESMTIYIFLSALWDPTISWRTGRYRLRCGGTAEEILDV
Assay: Assay 1: GCS Enzymatic Assay (MDCK cell lysate, C6-NBD-Ceramide, LC/MS)
Type: biochemical, canine
Conditions: Table 1; MDCK cell lysate; read-out: IC50 (nM) generated from Assay 1
In short: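 LC/MS/MS measurement of glucosylceramide and NBD-ceramide after a 1 h, 37 °C reaction with 100 μM UDP-glucose and 10 μM C6-NBD-ceramide gave IC50s or percent inhibition.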

Question: Which IC50 does the source give for `O=C(N[C@H](CN1CCCC1)[C@H](O)c1ccc2c(c1)OCCO2)C(F)(F)C1Cc2cc3nccnc3cc2C1` [Compound 13, 2-(7,8-dihydro-6H-cyclopenta[g]quinoxalin-7-yl)-N-((1R,2R)-1-(2,3-dihydrobenzo[b][1,4]dioxin-6-yl)-1-hydroxy-3-(pyrrolidin-1-yl)propan-2-yl)-2,2-difluoroacetamide] here?
Answer: 50 to 5000 nM

Question: `O=C(N[C@H](CN1CC[C@@H](F)C1)[C@H](O)c1ccc2c(c1)OCCO2)C(F)(F)c1cc2cc(Cl)ccc2o1` [Compound 46, 2-(5-chlorobenzofuran-2-yl)-N-((1R,2R)-1-(2,3-dihydrobenzo[b][1,4]dioxin-6-yl)-3-((1R)-3-fluoropyrrolidin-1-yl)-1-hydroxypropan-2-yl)-2,2-difluoroacetamide] was tested. Which IC50 did it give?
Answer: 50 to 5000 nM

Same assay, conditions: Table 1; values marked *; MDCK cell lysate

Question: How did the “% inhibition generated from Assay 1” value turn out when `O=C(N[C@H](CN1CCCC1)[C@H](O)c1cc2c(cc1Br)OCCO2)C(F)(F)c1cc2cc(Cl)ccc2o1` [Compound 61, N-((1R,2R)-1-(7-bromo-2,3-dihydrobenzo[b][1,4]dioxin-6-yl)-1-hydroxy-3-(pyrrolidin-1-yl)propan-2-yl)-2-(5-chlorobenzofuran-2-yl)-2,2-difluoroacetamide] was run?
Answer: B* (the compound had a % inhibition of greater than or equal to about 3% but less than about 50%)

Same assay, conditions: Table 2; data marked by *

Question: Which “% inhibition generated from Assay 1” value does the source give for `O=C(N[C@H](CN1CCCC1)[C@H](O)c1cc(F)c2c(c1)OCCO2)C(F)(F)c1cn2ccccc2n1` [Compound 196, 2,2-difluoro-N-((1R,2R)-1-(8-fluoro-2,3-dihydrobenzo[b][1,4]dioxin-6-yl)-1-hydroxy-3-(pyrrolidin-1-yl)propan-2-yl)-2-(imidazo[1,2-a]pyridin-2-yl)acetamide] here?
Answer: B* (the compound had a % inhibition of greater than or equal to about 3% but less than about 50%)

Question: Which “% inhibition generated from Assay 1” value does the source give for `O=C(N[C@H](CN1CCC1)C(O)c1cc(F)c2c(c1)OCCO2)C(F)(F)CCc1ccc2ccccc2c1` (stereo in doubt) [Compound 113, N-((1S,2R)-3-(azetidin-1-yl)-1-(8-fluoro-2,3-dihydrobenzo[b][1,4]dioxin-6-yl)-1-hydroxypropan-2-yl)-2,2-difluoro-4-(naphthalen-2-yl)butanamide] here?
Answer: B* (the compound had a % inhibition of greater than or equal to about 3% but less than about 50%)

Question: How did the “% inhibition generated from Assay 1” value turn out when `O=C(N[C@H](CN1CCCC1)[C@H](O)c1ccc(OC2CC2)c(Cl)c1)C(F)(F)c1cn2ccccc2n1` [Compound 199, N-((1R,2R)-1-(3-chloro-4-cyclopropoxyphenyl)-1-hydroxy-3-(pyrrolidin-1-yl)propan-2-yl)-2,2-difluoro-2-(imidazo[1,2-a]pyridin-2-yl)acetamide] was run?
Answer: B* (the compound had a % inhibition of greater than or equal to about 3% but less than about 50%)

Same assay, conditions: Table 2; data without asterisk; read-out: IC50 (nM) generated from Assay 1

Question: How did the IC50 turn out when `O=C(N[C@H](CN1CCCC1)[C@H](O)c1cc(F)c2c(c1)OCCO2)C(F)(F)CCc1ccc2cc(F)ccc2c1` [Compound 87, 2,2-difluoro-N-((1R,2R)-1-(8-fluoro-2,3-dihydrobenzo[b][1,4]dioxin-6-yl)-1-hydroxy-3-(pyrrolidin-1-yl)propan-2-yl)-4-(6-fluoronaphthalen-2-yl)butanamide] was run?
Answer: < 50 nM

Question: Which IC50 does the source give for `O=C(N[C@H](CN1CCCC1)[C@H](O)c1ccc(OC2CC2)c(Cl)c1)C(=O)c1cc2cc(Cl)ccc2o1` [Compound 79, N-((1R,2R)-1-(3-chloro-4-cyclopropoxyphenyl)-1-hydroxy-3-(pyrrolidin-1-yl)propan-2-yl)-2-(5-chlorobenzofuran-2-yl)-2-oxoacetamide] here?
Answer: < 50 nM

Question: How did the IC50 turn out when `O=C(N[C@H](CN1CCCC1)[C@H](O)c1ccc(OC2CCOCC2)c(Cl)c1)C(F)(F)c1cc2cc(Cl)ccc2o1` [Compound 105, N-((1R,2R)-1-(3-chloro-4-((tetrahydro-2H-pyran-4-yl)oxy)phenyl)-1-hydroxy-3-(pyrrolidin-1-yl)propan-2-yl)-2-(5-chlorobenzofuran-2-yl)-2,2-difluoroacetamide] was run?
Answer: < 50 nM

Question: For `O=C(N[C@H](CN1CCCC1)[C@H](O)c1ccc2c(c1)OCCO2)C(=O)c1ccc(-c2ccc(Cl)cc2)cc1` [Example 267, 2-(4′-chloro-[1,1′-biphenyl]-4-yl)-N-((1R,2R)-1-(2,3-dihydrobenzo[b][1,4]dioxin-6-yl)-1-hydroxy-3-(pyrrolidin-1-yl)propan-2-yl)-2-oxoacetamide], which IC50 is on record?
Answer: < 50 nM

Question: With `O=C(N[C@H](CN1CCCC1)[C@H](O)c1ccc(OC2CC2)c(Cl)c1)C(=O)c1ccc(-c2ccc3sc(Cl)cc3c2)cc1` [Example 263, N-((1R,2R)-1-(3-chloro-4-cyclopropoxyphenyl)-1-hydroxy-3-(pyrrolidin-1-yl)propan-2-yl)-2-(4-(2-chlorobenzo[b]thiophen-5-yl)phenyl)-2-oxoacetamide] as the compound, how does the IC50 read?
Answer: < 50 nM

Question: How did the IC50 turn out when `O=C(N[C@H](CN1CCCC1)[C@H](O)c1ccc(OC2CC2)c(Cl)c1)/C(CCc1ccc2cc(F)ccc2c1)=N/O` [Compound 112, (E)-N-((1R,2R)-1-(3-chloro-4-cyclopropoxyphenyl)-1-hydroxy-3-(pyrrolidin-1-yl)propan-2-yl)-4-(6-fluoronaphthalen-2-yl)-2-(hydroxyimino)butanamide] was run?
Answer: < 50 nM

Question: `O=C(N[C@H](CN1CCCC1)[C@H](O)c1cc(F)c2c(c1)OCCO2)/C(=N/O)c1ccc2cc(Cl)ccc2c1` [Compound 158, (E)-2-(6-chloronaphthalen-2-yl)-N-((1R,2R)-1-(8-fluoro-2,3-dihydrobenzo[b][1,4]dioxin-6-yl)-1-hydroxy-3-(pyrrolidin-1-yl)propan-2-yl)-2-(hydroxyimino)acetamide] was tested. Which IC50 did it give?
Answer: < 50 nM

Question: With `CC(C)(C)Oc1ccc([C@@H](O)[C@@H](CN2CCCC2)NC(=O)C(=O)c2ccc(-c3ccc(F)cc3)cc2)cc1Cl` [Example 291, N-((1R,2R)-1-(4-(tert-butoxy)-3-chlorophenyl)-1-hydroxy-3-(pyrrolidin-1-yl)propan-2-yl)-2-(4′-fluoro-[1,1′-biphenyl]-4-yl)-2-oxoacetamide] as the compound, how does the IC50 read?
Answer: 50 to 5000 nM

Question: With `Cn1ncc2ccc(C(=O)C(=O)N[C@H](CN3CCCC3)[C@H](O)c3ccc(OC4CC4)c(Cl)c3)cc21` [Compound 244, N-((1R,2R)-1-(3-chloro-4-cyclopropoxyphenyl)-1-hydroxy-3-(pyrrolidin-1-yl)propan-2-yl)-2-(1-methyl-1H-indazol-6-yl)-2-oxoacetamide] as the compound, how does the IC50 read?
Answer: < 50 nM

Question: How did the IC50 turn out when `O=C(N[C@H](CN1CCCC1)[C@H](O)c1ccc2c(c1F)OCCO2)C(=O)c1ccc(-c2ccc(F)cc2)cc1` [Example 268, N-((1R,2R)-1-(5-fluoro-2,3-dihydrobenzo[b][1,4]dioxin-6-yl)-1-hydroxy-3-(pyrrolidin-1-yl)propan-2-yl)-2-(4′-fluoro-[1,1′-biphenyl]-4-yl)-2-oxoacetamide] was run?
Answer: < 50 nM

Same assay, conditions: Table 3; MDCK cell lysate; read-out: IC50 (nM) generated from Assay 1

Question: `O=C(N[C@H](CN1CCCC1)[C@H](O)c1ccc(OC2CC2)c(Cl)c1)C(F)(F)c1ccc(-c2ccc(Cl)s2)cc1` [Example 396, N-((1R,2R)-1-(3-chloro-4-cyclopropoxyphenyl)-1-hydroxy-3-(pyrrolidin-1-yl)propan-2-yl)-2-(4-(5-chlorothiophen-2-yl)phenyl)-2,2-difluoroacetamide] was tested. Which IC50 did it give?
Answer: < 50 nM

Question: `CN(C(=O)C(=O)c1ccc(-c2ccc(F)cc2)cc1)[C@H](CN1CCCC1)[C@H](O)c1ccc(OC2CC2)c(F)c1` [Example 404, N-((1R,2R)-1-(4-cyclopropoxy-3-fluorophenyl)-1-hydroxy-3-(pyrrolidin-1-yl)propan-2-yl)-2-(4′-fluoro-[1,1′-biphenyl]-4-yl)-N-methyl-2-oxoacetamide] was tested. Which IC50 did it give?
Answer: < 50 nM
